Source: ChEMBL document CHEMBL5303304, “EUbOPEN Chemogenomics Library - IncuCyte” (2023)

Key:
Type in all cases: toxicity, cell-based
[1] = system: U2OS; assay: Incucyte cell viability with U2OS; conditions: human, 10 µM, compound concentration 10 uM
[2] = system: Fibroblast; assay: Incucyte cell viability with human fibroblast; conditions: 10 µM, compound concentration 10 uM
[3] = system: HEK-293T; assay: Incucyte cell viability with HEK293T; conditions: human, 10 µM, compound concentration 10 uM
Further: unitless GR value; below 1 slowed growth and below 0 cell loss.

| SMILES | Growth Rate ([1]; 6 h, replicate number 1) | Growth Rate ([1]; 12 h, replicate number 1) | Growth Rate ([1]; 18 h, replicate number 1) | Growth Rate ([1]; 24 h, replicate number 2) | Growth Rate ([3]; 6 h, replicate number 1) | Growth Rate ([3]; 6 h, replicate number 2) | Growth Rate ([3]; 12 h, replicate number 1) | Growth Rate ([3]; 12 h, replicate number 2) | Growth Rate ([3]; 18 h, replicate number 1) | Growth Rate ([3]; 18 h, replicate number 2) | Growth Rate ([3]; 24 h, replicate number 2) | Growth Rate ([2]; 6 h, replicate number 2) | Growth Rate ([2]; 12 h, replicate number 2) | Growth Rate ([2]; 18 h, replicate number 2) | Growth Rate ([2]; 24 h, replicate number 2) | Growth Rate ([3]; 24 h, replicate number 1) | Growth Rate ([2]; 6 h, replicate number 1) | Growth Rate ([2]; 12 h, replicate number 1) | Growth Rate ([2]; 18 h, replicate number 1) | Growth Rate ([2]; 24 h, replicate number 1) | other results |
| --- | --- | --- | --- | --- | --- | --- | --- | --- | --- | --- | --- | --- | --- | --- | --- | --- | --- | --- | --- | --- | --- |
| COc1cc2ncnc(Nc3cccc(O)c3)c2cc1OC | 0.98 | 0.83 | 0.88 | 0.84 | 0.14 | 0.13 | 0.56 | 0.71 | 0.96 | 0.75 | 0.77 | – | – | – | – | – | – | – | – | – | Growth Rate ([1]; 0 h, replicate number 1): -0.82; Growth Rate ([1]; 6 h, replicate number 2): 0.55; Growth Rate ([1]; 12 h, replicate number 2): 0.75; Growth Rate ([1]; 18 h, replicate number 2): 0.69; Growth Rate ([2]; 0 h, replicate number 1): -1; Growth Rate ([2]; 0 h, replicate number 2): 0.07 |
| CNc1nc(Nc2ccc(C(=O)N3CCOCC3)cc2OC)ncc1Cl | -0.99 | – | – | – | 0.75 | 0.81 | – | – | 0.99 | 0.96 | 0.96 | 0.67 | 0.72 | 0.63 | 0.99 | 0.92 | – | – | – | – | Growth Rate ([2]; 0 h, replicate number 1): -0.99 |
| NCC1CCC(CNc2nc(NCc3ccccc3OC(F)(F)F)ncc2[N+](=O)[O-])CC1 (stereo unspecified) | 0.45 | 0.44 | 0.69 | 0.59 | -0.6 | -0.49 | -0.36 | -0.27 | -0.04 | -0.01 | 0.1 | 0.74 | 0.57 | 0.35 | 0.35 | 0.09 | 0.48 | 0.28 | -0.03 | 0.04 | Growth Rate ([1]; 6 h, replicate number 2): 0.71; Growth Rate ([1]; 12 h, replicate number 2): 0.59; Growth Rate ([1]; 18 h, replicate number 2): 0.63; Growth Rate ([1]; 24 h, replicate number 1): 0.84; Growth Rate ([2]; 0 h, replicate number 1): -0.85 |
| COC[C@@H](C)N[C@H]1CC[C@H](Nc2cc(-c3cccc(NCC4(C#N)CCOCC4)n3)c(Cl)cn2)CC1 | 0.79 | 0.88 | 0.59 | 0.68 | -0.07 | – | 0.2 | 0.18 | 0.22 | 0.24 | 0.35 | -0.13 | -0.06 | -0.22 | -0.12 | 0.27 | 0.06 | -0.08 | -0.12 | -0.09 | Growth Rate ([1]; 0 h, replicate number 2): 0.56; Growth Rate ([1]; 6 h, replicate number 2): 0.56; Growth Rate ([1]; 12 h, replicate number 2): 0.62; Growth Rate ([1]; 18 h, replicate number 2): 0.71; Growth Rate ([1]; 24 h, replicate number 1): 0.79; Growth Rate ([2]; 0 h, replicate number 2): -1 |
| Cc1nc(Nc2cnn(C3CCNCC3)c2)nc2c1N(C)C(=O)c1cc3ccccc3cc1N2C | 0.19 | -0.83 | 0.36 | 0.62 | 0.03 | 0.26 | 0.41 | 0.67 | 0.48 | 0.63 | 0.7 | 0.56 | 0.26 | 0.06 | 0.17 | 0.52 | -0.01 | -0.05 | -0.22 | -0.14 | Growth Rate ([1]; 6 h, replicate number 2): 0.81; Growth Rate ([1]; 12 h, replicate number 2): 0.83; Growth Rate ([1]; 18 h, replicate number 2): 0.65; Growth Rate ([1]; 24 h, replicate number 1): 0.58 |
| C=CC(=O)Nc1cc(-c2nn(C3CCC(N4CCN(C(C)=O)CC4)CC3)c3ncnc(N)c23)ccc1Oc1ccccc1 (stereo unspecified) | -0.85 | -0.62 | -0.59 | -0.41 | -0.71 | -0.92 | -0.48 | -0.56 | -0.4 | -0.22 | 0.09 | -0.24 | 0.07 | 0.33 | 0.67 | -0.31 | -0.52 | -0.15 | 0.03 | 0.21 | Growth Rate ([1]; 0 h, replicate number 2): -0.83; Growth Rate ([1]; 6 h, replicate number 2): -0.6; Growth Rate ([1]; 12 h, replicate number 2): -0.57; Growth Rate ([1]; 18 h, replicate number 2): -0.48; Growth Rate ([1]; 24 h, replicate number 1): -0.59 |
| CC[C@H](CO)Nc1nc(Nc2cccc(-c3ccccn3)c2)c2ncn(C(C)C)c2n1.Cl.O | – | 0.96 | 0.92 | – | -0.37 | -0.77 | -0.07 | -0.31 | 0.07 | -0.09 | 0 | 0.21 | 0.28 | 0.45 | 0.49 | 0.16 | 0.1 | 0.05 | 0.33 | 0.45 | Growth Rate ([1]; 0 h, replicate number 1): -0.98; Growth Rate ([1]; 24 h, replicate number 1): 0.76; Growth Rate ([2]; 0 h, replicate number 1): -0.64 |
| Fc1ccc(-c2nc(-c3ccc4ccccc4c3F)[nH]c2-c2ccncc2)cc1 | – | – | – | 0.94 | 0.81 | 0.42 | 0.77 | 0.57 | 0.7 | 0.41 | 0.47 | -0.01 | 0.65 | 0.8 | – | 0.67 | 0.58 | 0.47 | 0.61 | 0.76 | Growth Rate ([1]; 0 h, replicate number 1): -1 |
| CCN1CCN(Cc2ccc(C(=O)Nc3ccc(C)c(Oc4ccc5c(c4)CC(=O)N5)c3)cc2C(F)(F)F)CC1.Cl.Cl | – | 0.23 | 0.37 | -0.01 | -0.56 | -0.1 | -0.3 | 0.11 | -0.23 | 0.15 | 0.14 | 0.36 | -0.08 | -0.3 | -0.31 | -0.13 | 0.34 | -0.1 | -0.33 | -0.38 | Growth Rate ([1]; 0 h, replicate number 2): -0.46; Growth Rate ([1]; 6 h, replicate number 2): -0.37; Growth Rate ([1]; 12 h, replicate number 2): -0.14; Growth Rate ([1]; 18 h, replicate number 2): -0.02; Growth Rate ([1]; 24 h, replicate number 1): 0.51; Growth Rate ([2]; 0 h, replicate number 2): 0.42 |
